Measured values: patent publication US10214546B2, “Btk inhibitors” (MERCK SHARP & DOHME CORP., priority 2014, dated 2019)
Like-named read-outs stand apart in the source and are kept apart here.

Tests used:
[1] = biological target: BTK enzyme (recombinant full-length BTK, hBTK) (Homo sapiens (Human), UniProt Q06187); assay: BTK enzymatic activity LANCE TR-FRET assay; format: biochemical; conditions: 50 pM hBTK, 25 μM ATP, 2 μM biotin-A5-peptide; compound range 1 μM to 0.017 nM; read-out: BTK binding IC50
[2] = test system: adenosine uptake into HeLa cells; assay: [3H]Adenosine uptake assay in HeLa cells; format: cell-based; conditions: [3H]adenosine accumulation in HeLa cells, compound range 10 μM to 0.032 nM, read-out: ADU inhibition IC50
Outline: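 IC50 came from a 4-parameter fit of counts per second over a ten-point, 1:3 titration (final 10 µM down to […]). Compound was applied 30 min at ambient temperature in HBSS/5% FBS before a 500 nM [3H]adenosine solution was added; uptake ran 60 min, read by Cytostar-T proximity scintillation.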

Chain of BTK enzyme (recombinant full-length BTK, hBTK) (Q06187 whole entry): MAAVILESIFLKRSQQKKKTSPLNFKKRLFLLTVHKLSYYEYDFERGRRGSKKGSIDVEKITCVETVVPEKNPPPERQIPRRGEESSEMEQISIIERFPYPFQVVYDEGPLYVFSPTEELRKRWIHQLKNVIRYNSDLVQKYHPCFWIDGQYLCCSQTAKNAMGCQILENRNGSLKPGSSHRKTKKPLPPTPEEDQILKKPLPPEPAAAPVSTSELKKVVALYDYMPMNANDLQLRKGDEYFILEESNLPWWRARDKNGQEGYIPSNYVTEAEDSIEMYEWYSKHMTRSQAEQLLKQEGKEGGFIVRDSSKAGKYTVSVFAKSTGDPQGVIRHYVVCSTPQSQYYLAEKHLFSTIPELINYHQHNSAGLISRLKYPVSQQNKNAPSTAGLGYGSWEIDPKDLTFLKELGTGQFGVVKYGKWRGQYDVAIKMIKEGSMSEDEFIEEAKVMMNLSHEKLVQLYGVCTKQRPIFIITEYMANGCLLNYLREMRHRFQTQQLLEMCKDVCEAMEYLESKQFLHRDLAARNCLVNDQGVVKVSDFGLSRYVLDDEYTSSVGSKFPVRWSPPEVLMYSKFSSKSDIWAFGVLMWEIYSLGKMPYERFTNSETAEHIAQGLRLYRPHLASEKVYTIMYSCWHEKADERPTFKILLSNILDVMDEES

Row | Molecule | IC50 [1] | IC50 [2] | IC50 ([2]; Homo sapiens, HeLa)
1 | CC(O)(c1cccc(C(F)F)c1)c1ccc(-c2nc([C@@H]3CC[C@H]4CCC(=O)N4C3)n3c(F)cnc(N)c23)c(F)c1 (stereo partly drawn) [Example 207, (6R,8aS)-6-[8-amino-1-(4-{1-[3-(difluoromethyl)phenyl]-1-hydroxyethyl}-2-fluorophenyl)-5-fluoroimidazo[1,5-a]pyrazin-3-yl]hexahydroindolizin-3(2H)-one] | 459 nM | 0.933 µM | 
2 | CC(O)(c1cccc(C(F)F)c1)c1ccc(-c2nc([C@@H]3CC[C@H]4CCC(=O)N4C3)n3c(F)cnc(N)c23)c(F)c1 (stereo partly drawn) [Example 208, (6R,8aS)-6-(8-amino-1-(4-{1-[3-(difluoromethyl)phenyl]-1-hydroxyethyl}-2-fluorophenyl)-5-fluoroimidazo[1,5-a]pyrazin-3-yl]hexahydroindolizin-3(2H)-one] | 1.6 nM | 5.41 µM | 
3 | COc1cc(C(C)(O)c2cccc(C(F)(F)F)c2)ccc1-c1nc([C@@H]2CC[C@@H]3N(C2)C(=O)CC3(C)C)n2ccnc(N)c12 (stereo partly drawn) [Example 209, (6R,8aS)-6-[8-amino-1-(4-{1-hydroxy-1-[3-(trifluoromethyl)phenyl]ethyl}-2-methoxyphenyl)imidazo [1,5-a]pyrazin-3-yl]-1,1-dimethylhexahydroindolizin-3(2H)-one] | 26 nM | 1.12 µM | 
4 | COc1cc(C(O)(c2cccc(C(F)F)c2)C(F)(F)F)ccc1-c1nc([C@@H]2CC[C@H]3CCC(=O)N3C2)n2ccnc(N)c12 (stereo partly drawn) [Example 210, (6R,8aS)-6-[8-amino-1-(4-{1-[3-(difluoromethyl)phenyl]-2,2,2-trifluoro-1-hydroxyethyl}-2-methoxyphenyl)imidazo [1,5-a]pyrazin-3-yl]hexahydroindolizin-3(2H)-one] | 67 nM | 2.7 µM | 
5 | COc1cc(C(O)(c2cccc(C(F)F)c2)C(F)(F)F)ccc1-c1nc([C@@H]2CC[C@H]3CCC(=O)N3C2)n2ccnc(N)c12 (stereo partly drawn) [Example 211, (6R,8aS)-6-[8-amino-1-(4-{1-[3-(difluoromethyl)phenyl]-2,2,2-trifluoro-1-hydroxyethyl}-2-methoxyphenyl)imidazo [1,5-a]pyrazin-3-yl]hexahydroindolizin-3(2H)-one] | 0.6 nM | 7.03 µM | 
6 | CCOc1cc([C@@](C)(O)c2cccc(C(F)(F)F)c2)cc(F)c1-c1nc([C@@H]2CC[C@H]3CCC(=O)N3C2)n2ccnc(N)c12 [Example 212, (6R,8aS)-6-[8-amino-1-(2-ethoxy-6-fluoro-4-{(1S)-1-hydroxy-1-[3-(trifluoromethyl)phenyl]ethyl}phenyl)imidazo [1,5-a]pyrazin-3-yl]hexahydroindolizin-3(2H)-one] | 329 nM |  | 3.52 µM
7 | CCOc1cc([C@](C)(O)c2cccc(C(F)(F)F)c2)cc(F)c1-c1nc([C@@H]2CC[C@H]3CCC(=O)N3C2)n2ccnc(N)c12 [Example 213, (6R,8aS)-6-[8-amino-1-(2-ethoxy-6-fluoro-4-{(1R)-1-hydroxy-1-[3-(trifluoromethyl)phenyl]ethyl}phenyl)imidazo [1,5-a]pyrazin-3-yl]hexahydroindolizin-3(2H)-one] | 0.63 nM |  | 6 µM
8 | CCOc1cc(C(O)(c2cccc(C(F)(F)F)c2)C(F)(F)F)ccc1-c1nc([C@@H]2CC[C@H]3CCC(=O)N3C2)n2ccnc(N)c12 (stereo partly drawn) [Example 214, (6R,8aS)-6-[8-amino-1-(2-ethoxy-4-{2,2,2-trifluoro-1-hydroxy-1-[3-(trifluoromethyl)phenyl]ethyl}phenyl)imidazo [1,5-a]pyrazin-3-yl]hexahydroindolizin-3(2H)-one] | 4.1 nM |  | 3.11 µM
9 | (6R.8aS)-6-[8-amino-1- (4-{(1R)-1-[3- (difluoromethyl)phenyl]-1- hydroxyethyl}phenyl)- 5-fluoroimidazo[1,5- a]pyrazin-3-yl]-2,2- dimethylhexahydroindolizin- 3(2H)-one [Example 178] | 1.3 nM | 4.61 µM | 
